Experimental data as given in US11839613B2, “Pyrimidine derivatives as PGE2 receptor modulators” (IDORSIA PHARMACEUTICALS LTD, priority 2017, dated 2023).

Key:
PTGER2 (EP2) = PTGER2 (EP2) (Homo sapiens (Human), UniProt P43116); test: hEP2 b-arrestin assay (PathHunter HEK 293 PTGER2 b-arrestin cells); type: cell-based; details: antagonistic activity, beta-arrestin assay; read-out: hEP2 b-arr IC50
Protocol: Plate is pre-incubated 15 minutes at 37° C. Then five microliters of PGE2 (final conc. 5 μM) are transferred into the assay plate. Plate is incubated 120 minutes at 37° C.
(each concentration is measured in duplicate)

PTGER4 (EP4) = PTGER4 (EP4) (Homo sapiens (Human), UniProt P35408); test: cell-based
Sequence of PTGER4 (EP4) (P35408 whole entry): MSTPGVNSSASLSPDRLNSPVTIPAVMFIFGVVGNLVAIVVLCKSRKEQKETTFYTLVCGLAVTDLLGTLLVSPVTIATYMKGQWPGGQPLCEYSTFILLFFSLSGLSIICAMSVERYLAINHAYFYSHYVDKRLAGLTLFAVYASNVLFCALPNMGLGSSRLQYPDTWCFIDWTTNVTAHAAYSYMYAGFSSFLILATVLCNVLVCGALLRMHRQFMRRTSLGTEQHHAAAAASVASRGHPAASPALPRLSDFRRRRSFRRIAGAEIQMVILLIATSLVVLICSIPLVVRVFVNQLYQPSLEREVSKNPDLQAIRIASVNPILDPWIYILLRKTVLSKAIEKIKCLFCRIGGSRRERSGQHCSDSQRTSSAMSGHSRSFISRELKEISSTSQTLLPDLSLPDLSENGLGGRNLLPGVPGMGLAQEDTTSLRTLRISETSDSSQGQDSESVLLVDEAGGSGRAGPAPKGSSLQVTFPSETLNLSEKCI

Sequence of PTGER2 (EP2) (P43116 whole entry): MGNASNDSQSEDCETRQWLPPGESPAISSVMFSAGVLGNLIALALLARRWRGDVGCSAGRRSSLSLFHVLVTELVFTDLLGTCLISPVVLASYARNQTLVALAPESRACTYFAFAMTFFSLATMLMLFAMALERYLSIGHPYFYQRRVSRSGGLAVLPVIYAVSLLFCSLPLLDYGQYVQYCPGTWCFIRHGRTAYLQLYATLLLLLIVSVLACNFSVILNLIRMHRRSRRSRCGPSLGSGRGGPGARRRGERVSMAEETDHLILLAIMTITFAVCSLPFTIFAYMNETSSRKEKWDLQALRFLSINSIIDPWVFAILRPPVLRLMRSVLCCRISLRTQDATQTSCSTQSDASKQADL

Compound	IC50 (PTGER2 (EP2))	IC50 (PTGER4 (EP4))
COc1cc2c(cc1CCNc1cc(-c3ccc(CC(=O)O)c(OC)c3)ncn1)OCCO2 [Example 383, (2-Methoxy-4-{6-[2-(7-methoxy-2,3-dihydro-benzo[1,4]dioxin-6-yl)-ethylamino]-pyrimidin-4-yl}-phenyl)-acetic acid]	177 nM	194 nM
COc1cc(-c2cc(NCCc3c(OC)cc4ccccc4c3C)ncn2)ccc1CC(=O)O [Example 384, (2-Methoxy-4-{6-[2-(3-methoxy-1-methyl-naphthalen-2-yl)-ethylamino]-pyrimidin-4-yl}-phenyl)-acetic acid]	145 nM	28 nM
CCCc1cc(-c2cc(NCCc3cc4c(cc3OC)OCCO4)ncn2)ccc1CC(=O)O [Example 387, (4-{6-[2-(7-Methoxy-2,3-dihydro-benzo[1,4]dioxin-6-yl)-ethylamino]-pyrimidin-4-yl}-2-propyl-phenyl)-acetic acid]	61 nM	49 nM
CCCc1cc(-c2cc(NCCc3c(OC)cc4ccccc4c3C)ncn2)ccc1CC(=O)O [Example 388, (4-{6-[2-(3-Methoxy-1-methyl-naphthalen-2-yl)-ethylamino]-pyrimidin-4-yl}-2-propyl-phenyl)-acetic acid]	45 nM	13 nM
CCCc1cc(-c2cc(NCCc3cc(F)c4sccc4c3)ncn2)ccc1C(=O)O [Example 389, 4-{6-[2-(7-Fluoro-benzo[b]thiophen-5-yl)-ethylamino]-pyrimidin-4-yl}-2-propyl-benzoic acid]	51 nM	25 nM
CCOc1cc(-c2cc(NCCc3cc(C)c4sccc4c3)ncn2)sc1C(=O)O [Example 391, 3-Ethoxy-5-{6-[2-(7-methyl-benzo[b]thiophen-5-yl)-ethylamino]-pyrimidin-4-yl}-thiophene-2-carboxylic acid]	131 nM	19 nM
CCCOc1cc(-c2cc(NCCc3cc4ccsc4cc3OC)ncn2)ccc1CC(=O)O [Example 392, (4-{6-[2-(6-Methoxy-benzo[b]thiophen-5-yl)-ethylamino]-pyrimidin-4-yl}-2-propoxy-phenyl)-acetic acid]	66 nM	292 nM
CCCOc1cc(-c2cc(NCCc3ccc4sccc4c3F)ncn2)ccc1CC(=O)O [Example 393, (4-{6-[2-(4-Fluoro-benzo[b]thiophen-5-yl)-ethylamino]-pyrimidin-4-yl}-2-propoxy-phenyl)-acetic acid]	155 nM	166 nM
COc1cc2c(c(C)c1CCNc1cc(-c3ccc(C(=O)O)c(OC4CCC4)c3)ncn1)OCCO2 [Example 396, 2-Cyclobutoxy-4-{6-[2-(7-methoxy-5-methyl-2,3-dihydro-benzo[1,4]dioxin-6-yl)-ethylamino]-pyrimidin-4-yl}-benzoic acid]	2 nM	44 nM
CCCc1cc(-c2cc(NCCc3c(OC)cc4c(c3C)OCCO4)ncn2)ccc1CC(=O)O [Example 397, (4-{6-[2-(7-Methoxy-5-methyl-2,3-dihydro-benzo[1,4]dioxin-6-yl)-ethylamino]-pyrimidin-4-yl}-2-propyl-phenyl)-acetic acid]	7 nM	35 nM
CCOc1cc(-c2cc(NCCc3c(OC)cc4c(c3C)OCCO4)ncn2)ccc1CC(=O)O [Example 399, (2-Ethoxy-4-{6-[2-(7-methoxy-5-methyl-2,3-dihydro-benzo[1,4]dioxin-6-yl)-ethylamino]-pyrimidin-4-yl}-phenyl)-acetic acid]	10 nM	30 nM
COc1cc2c(c(C)c1CCNc1cc(-c3ccc(C(=O)O)c(SC)c3)ncn1)OCCO2 [Example 400, 4-{6-[2-(7-Methoxy-5-methyl-2,3-dihydro-benzo[1,4]dioxin-6-yl)-ethylamino]-pyrimidin-4-yl}-2-methylsulfanyl-benzoic acid]	2 nM	44 nM
CCCc1cc(-c2cc(NCCc3cc4c(cc3OCC)OCCO4)ncn2)ccc1CC(=O)O [Example 402, (4-{6-[2-(7-Ethoxy-2,3-dihydro-benzo[1,4]dioxin-6-yl)-ethylamino]-pyrimidin-4-yl}-2-propyl-phenyl)-acetic acid]	22 nM	61 nM
CCOc1cc2c(cc1CCNc1cc(-c3cc(F)c(CC(=O)O)c(OCC)c3)ncn1)OCCO2 [Example 403, (2-Ethoxy-4-{6-[2-(7-ethoxy-2,3-dihydro-benzo[1,4]dioxin-6-yl)-ethylamino]-pyrimidin-4-yl}-6-fluoro-phenyl)-acetic acid]	57 nM	65 nM
CCOc1cc(-c2cc(NCCc3cc4ccsc4c(F)c3OC)ncn2)ccc1C(=O)O [Example 404, 2-Ethoxy-4-{6-[2-(7-fluoro-6-methoxy-benzo[b]thiophen-5-yl)-ethylamino]-pyrimidin-4-yl}-benzoic acid]	20 nM	80 nM
COc1c(CCNc2cc(-c3ccc(C(=O)O)c(SC)c3)ncn2)cc2ccsc2c1F [Example 405, 4-{6-[2-(7-Fluoro-6-methoxy-benzo[b]thiophen-5-yl)-ethylamino]-pyrimidin-4-yl}-2-methylsulfanyl-benzoic acid]	9 nM	79 nM

Compound	IC50 (PTGER2 (EP2))	IC50 (PTGER4 (EP4))
CCOc1cc(-c2cc(NCCc3cc4ccsc4c(F)c3OC)ncn2)ccc1CC(=O)O [Example 406, (2-Ethoxy-4-{6-[2-(7-fluoro-6-methoxy-benzo[b]thiophen-5-yl)-ethylamino]-pyrimidin-4-yl}-phenyl)-acetic acid]	45 nM	62 nM
CCCc1cc(-c2cc(NCCc3c(OC)cc4c(c3F)OCCO4)ncn2)ccc1CC(=O)O [Example 408, (4-{6-[2-(5-Fluoro-7-methoxy-2,3-dihydro-benzo[1,4]dioxin-6-yl)-ethylamino]-pyrimidin-4-yl}-2-propyl-phenyl)-acetic acid]	29 nM	24 nM
CC(C)Cc1cc(-c2cc(NCCc3ccc4sccc4c3F)ncn2)ccc1CC(=O)O [Example 409, (4-{6-[2-(4-Fluoro-benzo[b]thiophen-5-yl)-ethylamino]-pyrimidin-4-yl}-2-isobutyl-phenyl)-acetic acid]	260 nM	57 nM
COc1c(CCNc2cc(-c3ccc(CC(=O)O)c(CC(C)C)c3)ncn2)cc2ccsc2c1F [Example 410, (4-{6-[2-(7-Fluoro-6-methoxy-benzo[b]thiophen-5-yl)-ethylamino]-pyrimidin-4-yl}-2-isobutyl-phenyl)-acetic acid]	153 nM	113 nM
COc1cc2c(cc1CCNc1cc(-c3ccc(CC(=O)O)c(CC(C)C)c3)ncn1)OCCO2 [Example 411, (2-Isobutyl-4-{6-[2-(7-methoxy-2,3-dihydro-benzo[1,4]dioxin-6-yl)-ethylamino]-pyrimidin-4-yl}-phenyl)-acetic acid]	97 nM	31 nM
CCOc1cc2c(cc1CCNc1cc(-c3ccc(CC(=O)O)c(CC(C)C)c3)ncn1)OCCO2 [Example 412, (4-{6-[2-(7-Ethoxy-2,3-dihydro-benzo[1,4]dioxin-6-yl)-ethylamino]-pyrimidin-4-yl}-2-isobutyl-phenyl)-acetic acid]	20 nM	40 nM
CC(C)Cc1cc(-c2cc(NCCc3ccc4sccc4c3F)ncn2)ccc1C(=O)O [Example 413, 4-{6-[2-(4-Fluoro-benzo[b]thiophen-5-yl)-ethylamino]-pyrimidin-4-yl}-2-isobutyl-benzoic acid]	62 nM	41 nM
CC(C)Cc1cc(-c2cc(NCCc3cc(F)c4sccc4c3)ncn2)ccc1C(=O)O [Example 414, 4-{6-[2-(7-Fluoro-benzo[b]thiophen-5-yl)-ethylamino]-pyrimidin-4-yl}-2-isobutyl-benzoic acid]	219 nM	48 nM
COc1c(CCNc2cc(-c3ccc(C(=O)O)c(CC(C)C)c3)ncn2)cc2ccsc2c1F [Example 415, 4-{6-[2-(7-Fluoro-6-methoxy-benzo[b]thiophen-5-yl)-ethylamino]-pyrimidin-4-yl}-2-isobutyl-benzoic acid]	63 nM	52 nM
CCOc1cc2c(cc1CCNc1cc(-c3ccc(C(=O)O)c(CC(C)C)c3)ncn1)OCCO2 [Example 417, 4-{6-[2-(7-Ethoxy-2,3-dihydro-benzo[1,4]dioxin-6-yl)-ethylamino]-pyrimidin-4-yl}-2-isobutyl-benzoic acid]	38 nM	174 nM
CCOc1cc(-c2cc(NCCc3ccc4sccc4c3F)ncn2)ccc1OCCC(=O)O [Example 421, 3-(2-Ethoxy-4-{6-[2-(4-fluoro-benzo[b]thiophen-5-yl)-ethylamino]-pyrimidin-4-yl}-phenoxy)-propionic acid]	84 nM	22 nM
CCOc1cc(-c2cc(NCCc3cc(F)c4sccc4c3)ncn2)ccc1OCCC(=O)O [Example 422, 3-(2-Ethoxy-4-{6-[2-(7-fluoro-benzo[b]thiophen-5-yl)-ethylamino]-pyrimidin-4-yl}-phenoxy)-propionic acid]	249 nM	23 nM
CCOc1cc(-c2cc(NCCc3c(OC)cc4ccccc4c3C)ncn2)ccc1OCCC(=O)O [Example 423, 3-(2-Ethoxy-4-{6-[2-(3-methoxy-1-methyl-naphthalen-2-yl)-ethylamino]-pyrimidin-4-yl}-phenoxy)-propionic acid]	49 nM	10 nM
CC(C)Oc1cc(-c2cc(NCCc3ccc4sccc4c3F)ncn2)ccc1CC(=O)O [Example 424, (4-{6-[2-(4-Fluoro-benzo[b]thiophen-5-yl)-ethylamino]-pyrimidin-4-yl}-2-isopropoxy-phenyl)-acetic acid]	424 nM	80 nM
CCOc1cc2c(cc1CCNc1cc(-c3ccc(CC(=O)O)c(OC(C)C)c3)ncn1)OCCO2 [Example 425, (4-{6-[2-(7-Ethoxy-2,3-dihydro-benzo[1,4]dioxin-6-yl)-ethylamino]-pyrimidin-4-yl}-2-isopropoxy-phenyl)-acetic acid]	65 nM	152 nM
